This is an account of results in patent US4347319A, “Microbiological epoxidation process” (priority 1980, dated 1982).

Assay [1] has as its system Methylobacter vinelandii (CRL M5Y) NRRL B-11,218. Description: Oxidation by washed cell suspensions of methane-grown cells. It is filed as cell-based. To be noted: for Oxidative Conversion Rates: methane-grown washed cells, 30° C., methane to methanol, alkene to 1,2-epoxide. The procedure, abridged: (§1)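 Products were quantified by gas chromatography (flame ionization) in headspace/liquid samples taken periodically from sealed vials. Each vial held 2 mg washed methane-grown cells in 0.15 M phosphate pH 7.0 under a 1:1 substrate/oxygen gas phase, shaken at 30 °C.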

The subject of assay [2] is Methylomonas methanica (CRL M4P) NRRL B-11,205. The description is as above. Type of assay: cell-based. The method in brief:
as §1

For assay [3], the system named is Methylobacter chroococcum (CRL 23 PM8) NRRL B-11,215. The assay is described as above. It is filed as cell-based. The procedure, abridged:
as §1

Assay [4] relates to Methylococcus capsulatus (CRL 25 PM13) NRRL B-11,221. Described as above. It is filed as cell-based. The method in brief: as §1
The test system of assay [5] is Methylococcus minimus (CRL 24 PM12) NRRL B-11,220. The assay is described as above. It is filed as cell-based. The method in brief:
as §1

Assay [6] deals with Methylomonas agile (CRL 22 PM9) NRRL B-11,209. Described as above. Type of assay: cell-based. The method in brief: as §1
Assay [7] deals with Methylomonas rubrum (CRL 20 PM6) NRRL B-11,211. Described as above. Type of assay: cell-based. To be noted: for Oxidative Conversion Rates: methane-grown washed cells, 30° C., methane to methanol, alkene to 1,2-epoxide. The procedure, abridged:
as §1

For assay [8], the system named is cell fractions of Methylosinus trichosporium (OB3b, NRRL B-11,196). Type of assay: biochemical. To be noted: S(80); propylene to propylene oxide, methane to methanol; 30° C. On the procedure:
Cells were washed twice with 25 mM potassium phosphate buffer, pH 7.0 containing 5 mM MgCl2. Cells were suspended in the same buffer. The cell suspensions at 4° C. were disintegrated by a single passage through a French Pressure cell (15,000 lb./in.^2) and centrifuged at 5000×g. for 15 min. to remove unbroken bacteria. The supernatant solution (crude extract) was then centrifuged at 40,000×g. for 30 min., yielding particulate P(40) and soluble S(40) fractions. The S(40) fraction was subsequently centrifuged at 80,000×g. for 60 min., yielding particulate P(80) and soluble S(80) fractions. The particulate fractions [P(40) and P(80)] were suspended in 25 mM potassium phosphate buffer, pH 7.0, containing 5 mM MgCl2 and homogenized at 4° C.
The oxidation of methane and propylene by particulate [(P)40 and (P)80] fractions and soluble [S(80)] fraction was measured at 30° C. by estimating the production of methanol and propylene oxide, respectively. The reaction mixtures contained in […]: 150 mM potassium phosphate buffer, pH 7.0 containing 5 mM MgCl2 b, 0.6 ml; 10μ moles NADH, and cellular fraction.
Reaction mixtures were contained in 10 ml vials at 4° C. Vials were sealed with rubber caps. The gaseous phase in the vials was removed using vacuum and then was replaced with a gas mixture of methane or propylene and oxygen at a 1:1, v/v ratio. Oxidation of other gaseous n-alkanes and n-alkanes was examined as described above. For liquid substrates, 10 μl of substrate was used directly.
The products of epoxidation of n-alkenes and hydroxylation of n-alkanes were assayed by flame ionization gas chromatography using a stainless steel column (12'×1/8") packed with 10% Carbowax 20 M on 80/100 Chromosorb W and Porapak Q column. The column temperature was maintained isothermally at 120° C. The carrier gas flow rate was 30 ml/min. of helium. The various products were identified by retention time comparisons and co-chromatography with authentic standards.
Specific activities were expressed as μ moles of products formed per hour per mg. protein. Concentrations of protein in various fractions were determined by the method of Lowry et al., J. Biol. Chem., 193: 265-275 (1951).

Where [9] appears, read: methane-grown cells, 2-butanol to 2-butanone.
Setting [10] is: methane-grown washed cells, 30° C., methane to methanol, alkene to 1,2-epoxide.

Molecules are shown by their SMILES. Like-named read-outs stand apart in the source and are kept apart here.

As for `CCC(C)O` (centres unmarked) [2-Butanol], in assay [1] (setting [9]), the “Conversion Rate to Ketone, 2 hrs.” value was 2 μmole/2 mg protein and the “Conversion Rate to Ketone, 20 hrs.” value is 18 μmole/2 mg protein. Also, in assay [2], the “Conversion Rate to Ketone, 2 hrs.” value turned out to be 0.06 μmole/2 mg protein and the “Conversion Rate to Ketone, 20 hrs.” value turned out to be 2 μmole/2 mg protein.

`C=CC=C` [Butadiene]: the “Oxidative Conversion Rates” value in assay [3] (setting [10]) amounted to 1.8 μmole/hr/mg protein; in assay [4] (setting [10]), 2.5 μmole/hr/mg protein; in assay [5] (setting [10]) it was 3.0 μmole/hr/mg protein; in assay [6] (setting [10]), 2.0 μmole/hr/mg protein; in assay [2] (setting [10]), 1.0 μmole/hr/mg protein.

`C` [Methane]: the “Oxidative Conversion Rates” value is recorded as 0.72 in assay [3]; 0.9 μmole/hr/mg protein in assay [1]; 2.1 in assay [4]; 2.3 in assay [5]; 0.6 in assay [6]; 2.3 in assay [2]. The “Oxidative Conversion Rates” value in assay [7] was determined as 0.42 μmole/hr/mg protein. Also, the “Oxidizing Activity (rate of oxidation) in cell fraction” value in assay [8] is 0 μ moles of products formed per.

`CCC` [Propane]: in assay [7] (methane-grown cells, propane to acetone), the “Conversion Rate to Ketone” value stood at 3.5 μmoles/hr/mg Protein.

As for `C=CC` [Propylene], the “Oxidative Conversion Rates” value in assay [3] (setting [10]) came out at 2.5 μmole/hr/mg protein; in assay [1], 1.9 μmole/hr/mg protein; in assay [4] (setting [10]), 1.2 μmole/hr/mg protein; in assay [5] (setting [10]), 1.8 μmole/hr/mg protein; in assay [6] (setting [10]), 1.6 μmole/hr/mg protein; in assay [2] (setting [10]), 3.8 μmole/hr/mg protein. Moreover, the “Oxidative Conversion Rates” value in assay [7] amounted to 1.9 μmole/hr/mg protein. Further, the “Oxidizing Activity (rate of oxidation) in cell fraction” value in assay [8] is 0 μ moles of products formed per.
